Measurements from the NIST ThermoML archive (doi:10.1021/je0202073).
Numbers after ± are expanded uncertainties.

Legend:
[1] = Liquid; for mass density: 298.15 K, 101.33 kPa, vibrating tube; for Normal boiling temperature: Ebulliometric method (Recirculating still)
[2] = refractive index (Na D-line) (dimensionless); conditions: 303.15 K; 101.33 kPa; Liquid; Abbe refractometer
[3] = excess molar enthalpy (molar enthalpy of mixing); xn = mol fraction of the nth substance listed; conditions: 101.3 kPa, Liquid, Calvet calorimetry
[4] = xn = mol fraction of the nth substance listed; conditions: 101.3 kPa, Liquid

CCOC(C)=O [ethyl acetate]
Conditions | Normal boiling temperature [°C] | mass density [kg/m3] | refractive index
[1] | 77.10 ± 0.11 | 894.44 ± 0.46 | –
[2] | – | – | 1.3675 ± 0.0005

CCCC(=O)OCC [ethyl butanoate]
Conditions | Normal boiling temperature [°C] | mass density [kg/m3] | refractive index
[1] | 121.02 ± 0.13 | 873.94 ± 0.9 | –
[2] | – | – | 1.388 ± 0.0006

CCOC=O [ethyl methanoate]
Conditions | Normal boiling temperature [°C] | mass density [kg/m3] | refractive index
[1] | 54.14 ± 0.13 | 914.53 ± 0.94 | –
[2] | – | – | 1.355 ± 0.0006

CCOC(=O)CC [ethyl propanoate]
Conditions | Normal boiling temperature [°C] | mass density [kg/m3] | refractive index
[1] | 98.76 ± 0.11 | 883.95 ± 0.46 | –
[2] | – | – | 1.3791 ± 0.0005

CCOC(=O)CC [ethyl propanoate] + CC(C)(C)O
Conditions | excess molar enthalpy [kcal/mol] | excess molar volume [m3/mol]
[3], 299.15 K, x1 = 0.0555 | 0.0801 ± 0.00287 | –
[3], 299.15 K, x1 = 0.1332 | 0.183 ± 0.00335 | –
[3], 299.15 K, x1 = 0.2151 | 0.271 ± 0.00406 | –
[3], 299.15 K, x1 = 0.2979 | 0.346 ± 0.00454 | –
[3], 299.15 K, x1 = 0.3767 | 0.397 ± 0.00502 | –
[3], 299.15 K, x1 = 0.4164 | 0.417 ± 0.00526 | –
[3], 299.15 K, x1 = 0.4497 | 0.428 ± 0.00526 | –
[3], 299.15 K, x1 = 0.477 | 0.432 ± 0.0055 | –
[3], 299.15 K, x1 = 0.5513 | 0.43 ± 0.00526 | –
[3], 299.15 K, x1 = 0.6351 | 0.412 ± 0.00526 | –
[3], 299.15 K, x1 = 0.73 | 0.354 ± 0.00478 | –
[3], 299.15 K, x1 = 0.8294 | 0.257 ± 0.00406 | –
[3], 299.15 K, x1 = 0.9242 | 0.132 ± 0.00311 | –
[3], 318.15 K, x1 = 0.051 | 0.0699 ± 0.00263 | –
[3], 318.15 K, x1 = 0.1094 | 0.14 ± 0.00311 | –
[3], 318.15 K, x1 = 0.1681 | 0.209 ± 0.00359 | –
[3], 318.15 K, x1 = 0.2276 | 0.271 ± 0.00406 | –
[3], 318.15 K, x1 = 0.2892 | 0.328 ± 0.0043 | –
[3], 318.15 K, x1 = 0.3477 | 0.367 ± 0.00478 | –
[3], 318.15 K, x1 = 0.4028 | 0.395 ± 0.00502 | –
[3], 318.15 K, x1 = 0.4347 | 0.41 ± 0.00526 | –
[3], 318.15 K, x1 = 0.4528 | 0.415 ± 0.00526 | –
[3], 318.15 K, x1 = 0.4786 | 0.424 ± 0.00526 | –
[3], 318.15 K, x1 = 0.5297 | 0.425 ± 0.00526 | –
[3], 318.15 K, x1 = 0.5872 | 0.419 ± 0.00526 | –
[3], 318.15 K, x1 = 0.6499 | 0.398 ± 0.00502 | –
[3], 318.15 K, x1 = 0.7164 | 0.36 ± 0.00478 | –
[3], 318.15 K, x1 = 0.7897 | 0.3 ± 0.0043 | –
[3], 318.15 K, x1 = 0.8641 | 0.217 ± 0.00382 | –
[3], 318.15 K, x1 = 0.9381 | 0.114 ± 0.00311 | –
[4], 303.15 K, x1 = 0.0345 | – | 7.6e-07 ± 6e-08
[4], 303.15 K, x1 = 0.0905 | – | 2.12e-06 ± 7e-08
[4], 303.15 K, x1 = 0.1495 | – | 3.31e-06 ± 7e-08
[4], 303.15 K, x1 = 0.1943 | – | 4.02e-06 ± 7e-08
[4], 303.15 K, x1 = 0.2497 | – | 4.82e-06 ± 8e-08
[4], 303.15 K, x1 = 0.2987 | – | 5.39e-06 ± 8e-08
[4], 303.15 K, x1 = 0.3496 | – | 5.77e-06 ± 9e-08
[4], 303.15 K, x1 = 0.3997 | – | 6.19e-06 ± 9e-08
[4], 303.15 K, x1 = 0.4466 | – | 6.39e-06 ± 9e-08
[4], 303.15 K, x1 = 0.4486 | – | 6.45e-06 ± 9e-08
[4], 303.15 K, x1 = 0.4998 | – | 6.48e-06 ± 9e-08
[4], 303.15 K, x1 = 0.5006 | – | 6.53e-06 ± 9e-08
[4], 303.15 K, x1 = 0.5163 | – | 6.52e-06 ± 9e-08
[4], 303.15 K, x1 = 0.5188 | – | 6.51e-06 ± 9e-08
[4], 303.15 K, x1 = 0.5569 | – | 6.47e-06 ± 9e-08
[4], 303.15 K, x1 = 0.5646 | – | 6.42e-06 ± 9e-08
[4], 303.15 K, x1 = 0.5964 | – | 6.31e-06 ± 9e-08
[4], 303.15 K, x1 = 0.6368 | – | 6.07e-06 ± 9e-08
[4], 303.15 K, x1 = 0.6458 | – | 6e-06 ± 9e-08
[4], 303.15 K, x1 = 0.7044 | – | 5.45e-06 ± 8e-08
[4], 303.15 K, x1 = 0.7533 | – | 4.87e-06 ± 8e-08
[4], 303.15 K, x1 = 0.8103 | – | 4.04e-06 ± 8e-08
[4], 303.15 K, x1 = 0.858 | – | 3.25e-06 ± 7e-08
[4], 303.15 K, x1 = 0.9096 | – | 2.24e-06 ± 7e-08
[4], 303.15 K, x1 = 0.9432 | – | 1.54e-06 ± 6e-08
[4], 318.15 K, x1 = 0.0694 | – | 1.85e-06 ± 6e-08
[4], 318.15 K, x1 = 0.1223 | – | 2.99e-06 ± 7e-08
[4], 318.15 K, x1 = 0.1759 | – | 3.87e-06 ± 7e-08
[4], 318.15 K, x1 = 0.2144 | – | 4.51e-06 ± 8e-08
[4], 318.15 K, x1 = 0.2746 | – | 5.29e-06 ± 8e-08
[4], 318.15 K, x1 = 0.3188 | – | 5.79e-06 ± 9e-08
[4], 318.15 K, x1 = 0.3648 | – | 6.16e-06 ± 9e-08
[4], 318.15 K, x1 = 0.4303 | – | 6.43e-06 ± 9e-08
[4], 318.15 K, x1 = 0.4669 | – | 6.5e-06 ± 9e-08
[4], 318.15 K, x1 = 0.5429 | – | 6.53e-06 ± 9e-08
[4], 318.15 K, x1 = 0.596 | – | 6.43e-06 ± 9e-08
[4], 318.15 K, x1 = 0.6662 | – | 6.05e-06 ± 9e-08
[4], 318.15 K, x1 = 0.7319 | – | 5.43e-06 ± 8e-08
[4], 318.15 K, x1 = 0.8088 | – | 4.45e-06 ± 8e-08
[4], 318.15 K, x1 = 0.8557 | – | 3.75e-06 ± 8e-08
[4], 318.15 K, x1 = 0.9183 | – | 2.28e-06 ± 7e-08
